Source: patent US20140005197A1, “INHIBITORS OF INFLUENZA VIRUSES REPLICATION” (Vertex Pharmaceuticals Incorporated, priority 2010, published 2014)
pEC50, pIC50: −log10 of the molar value. Like-named read-outs stand apart in the source and are kept apart here.

Key:
[1] = system: influenza A virus; assay: microbe, parasite or virus in culture; assay type: cell-based
[2] = system: influenza A virus (A/PR/8/34); assay: microbe, parasite or virus in culture; assay type: cell-based
[3] = system: influenza; assay: Influenza Therapeutic Mouse Model; assay type: in vivo; conditions: Balb/c mice, 30 mg/kg BID × 10 days, dosing @ 48 hours post infection
[4] = Influenza A virus, viral RNA 50% of control wells, 18-36 hours, mean all, read-out: bDNA EC50
[5] = Influenza A virus, PR/8, MDCK, 72 h, read-out: Flu, MDCK IC50
[6] = Influenza A virus, bDNA viral RNA assay, read-out: EC50
[7] = Influenza A virus, PR/8, MDCK, MDCK cells, A/PR/8/34, CPE assay, read-out: IC50
[8] = viral RNA 50% of control wells, 18-36 hours, mean all, read-out: bDNA EC50

Structure (SMILES) | pEC50 [1, 4] | pIC50 [2, 5] | further results
O=C(O)[C@H]1C2CCC(CC2)[C@@H]1Nc1nc(-c2n[nH]c3ncc(Cl)cc23)c(F)cc1F (racemic) [Compound I-6, (2S,3S)-3-((6-(5-chloro-1H-pyrazolo[3,4-b]pyridin-3-yl)-3,5-difluoropyridin-2-yl)-amino)bicyclo[2.2.2]octane-2-carboxylate] | > 5.48 | > 5.48 | 
O=C(O)[C@H]1C2CCC(CC2)[C@@H]1Nc1cncc(-c2n[nH]c3ncc(F)cc23)n1 (racemic) [Compound I-9, (+/−)-trans-(2,3)-3-((6-(5-fluoro-1H-pyrazolo[3,4-b]pyridin-3-yl)pyrazin-2-yl)amino)bicyclo[2.2.2]octane-2-carboxylic acid] | > 5.48 | > 5.48 | pEC50 [1, 6]: 7.47; pIC50 [2, 7]: 7.77
N#Cc1cc(F)c(N[C@H]2C3CCC(CC3)[C@@H]2C(=O)O)nc1-c1n[nH]c2ncc(F)cc12 (racemic) [Compound I-12] | > 5.48 | > 5.48 | 
O=C(O)C1C2CCC(CC2)C1Nc1cnnc(-c2n[nH]c3ncc(F)cc23)n1 (racemic) [Compound I-17, (+/−)-trans-3-((3-(5-fluoro-1H-pyrazolo[3,4-b]pyridin-3-yl)-1,2,4-triazin-5-yl)amino)bicyclo[2.2.2]octane-2-carboxylic acid] | > 5.48 | > 5.48 | 
N#Cc1cc(F)c(NC2C3CCC(CC3)C2C(=O)O)cc1-c1n[nH]c2ncc(F)cc12 (racemic) [Compound I-21, (+/−)-trans-3-((4-cyano-2-fluoro-5-(5-fluoro-1H-pyrazolo[3,4-b]pyridin-3-yl)phenyl)amino)bicyclo[2.2.2]octane-2-carboxylic acid] | > 5.48 | > 5.48 | 
O=C(O)[C@H]1C2CCC(CC2)[C@@H]1Nc1nc(-c2n[nH]c3ncc(F)cc23)c(F)cc1F (stereo in doubt) [Compound I-5] | > 5.48 | > 5.48 | 
O=C(O)[C@H]1C2CCC(CC2)[C@@H]1Nc1nc(-c2n[nH]c3ncc(F)cc23)ccc1F (stereo in doubt) [Compound I-7] | > 5.48 | > 5.48 | 
CCOC(=O)[C@@H]1CCC[C@H](Nc2nc(-c3n[nH]c4ncc(F)cc34)c(F)cc2F)C1 [Compound I-1, (1R,3S)-ethyl 3-(3,5-difluoro-6-(5-fluoro-1H-pyrazolo[3,4-b]pyridin-3-yl)pyridin-2-ylamino)cyclohexanecarboxylate] | > 5.48 | > 5.48 | 
O=C(O)[C@@H]1CCC[C@H](Nc2nc(-c3n[nH]c4ncc(F)cc34)c(F)cc2F)C1 [Compound I-2, (1R,3S)-3-(3,5-difluoro-6-(5-fluoro-1H-pyrazolo[3,4-b]pyridin-3-yl)pyridin-2-ylamino)cyclohexanecarboxylic acid] | > 5.48 | > 5.48 | 
Cn1cnc(C(=O)N[C@@H]2CCC[C@H](Nc3nc(-c4n[nH]c5ncc(F)cc45)c(F)cc3F)C2)c1 [Compound I-3, N-((1R,3S)-3-(3,5-difluoro-6-(5-fluoro-1H-pyrazolo[3,4-b]pyridin-3-yl)pyridin-2-ylamino)cyclohexyl)-1-methyl-1H-imidazole-4-carboxamide] | > 5.48 | > 5.48 | 
O=C(O)[C@H]1C2CCC(CC2)[C@@H]1Nc1nc(-c2n[nH]c3ncc(F)cc23)c(F)cc1F [Compound I-8, sodium (2S,3S)-3-(3,5-difluoro-6-(5-fluoro-1H-pyrazolo[3,4-b]pyridin-3-yl)pyridin-2-ylamino)bicyclo[2.2.2]octane-2-carboxylate] |  |  | pEC50 [1, 6]: 8.15; pEC50 [1, 8]: > 5.48; pIC50 [2, 7]: 5.45; WBP (Penh; Day 6) ([3]; Whole Body Plethysmography, study day 6/7): 2.03; Percent Weight Loss (Day 8) ([3]; post challenge day 8): 20.8%; Percent Survival ([3]; survival scored for 21 days): 100%
O=C(O)[C@@H]1C2CCC(CC2)[C@H]1Nc1nc(-c2n[nH]c3ncc(F)cc23)ccc1F [Compound I-10] | > 5.48 |  | 
O=C(O)[C@H]1C2CCC(CC2)[C@@H]1Nc1nc(-c2n[nH]c3ncc(F)cc23)ccc1F [Compound I-11, (2S,3S)-3-(3-fluoro-6-(5-fluoro-1H-pyrazolo[3,4-b]pyridin-3-yl)pyridin-2-ylamino)bicyclo[2.2.2]octane-2-carboxylic acid] |  |  | pEC50 [1, 8]: > 5.48; pIC50 ([2]; read-out: Flu, MDCK IC50): > 5.48
O=C(O)[C@@H]1C2CCC(CC2)[C@H]1Nc1cncc(-c2n[nH]c3ncc(F)cc23)n1 [Compound I-13, (2R,3R)-3-((6-(5-fluoro-1H-pyrazolo[3,4-b]pyridin-3-yl)pyrazin-2-yl)amino)bicyclo-[2.2.2]octane-2-carboxylic acid] | > 5.48 | > 5.48 | 
O=C(O)[C@H]1C2CCC(CC2)[C@@H]1Nc1cncc(-c2n[nH]c3ncc(F)cc23)n1 [Compound I-14, (2S,3S)-3-((6-(5-fluoro-1H-pyrazolo[3,4-b]pyridin-3-yl)pyrazin-2-yl)amino)bicyclo-[2.2.2]octane-2-carboxylic acid] | > 5.48 | > 5.48 | 
N#Cc1cc(F)c(N[C@H]2C3CCC(CC3)[C@@H]2C(=O)O)nc1-c1n[nH]c2ncc(F)cc12 [Compound I-15, (2S,3S)-3-((5-cyano-3-fluoro-6-(5-fluoro-1H-pyrazolo[3,4-b]pyridin-3-yl)pyridin-2-yl)amino)bicyclo[2.2.2]octane-2-carboxylic acid] | > 5.48 | > 5.48 | 
N#Cc1cc(F)c(N[C@@H]2C3CCC(CC3)[C@H]2C(=O)O)nc1-c1n[nH]c2ncc(F)cc12 [Compound I-16] | > 5.48 | > 5.48 | 
O=C(N[C@@H]1CCC[C@H](Nc2nc(-c3n[nH]c4ncc(F)cc34)c(F)cc2F)C1)c1csc(Cl)c1 [Compound I-18, 5-chloro-N-((1R,3S)-3-((3,5-difluoro-6-(5-fluoro-1H-pyrazolo[3,4-b]pyridin-3-yl)pyridin-2-yl)amino)cyclohexyl)thiophene-3-carboxamide] | > 5.48 | > 5.48 | 
O=C(N[C@@H]1CCC[C@H](Nc2nc(-c3n[nH]c4ncc(F)cc34)c(F)cc2F)C1)c1ccsc1 [Compound I-19, N-((1R,3S)-3-((3,5-difluoro-6-(5-fluoro-1H-pyrazolo[3,4-b]pyridin-3-yl)pyridin-2-yl)amino)cyclohexyl)thiophene-3-carboxamide] | > 5.48 | > 5.48 | 
N#Cc1cc(F)c(N[C@H]2C3CCC(CC3)[C@@H]2C(=O)O)cc1-c1n[nH]c2ncc(F)cc12 [Compound I-20] |  |  | pEC50 [1, 8]: > 5.48; pIC50 ([2]; read-out: Flu, MDCK IC50): > 5.48
